Source: ChEMBL document CHEMBL1145770, “Efficient synthesis of 3-trifluoromethylphenyldiazirinyl oleic acid derivatives and their biological activity for protein kinase C” (Bioorg Med Chem Lett, 2003)

Molecular target: Protein kinase C alpha type (Homo sapiens) (UniProt P17252)
Assay: Effect on diacylglycerol induced (DAG) PKC activation at 1-10 uM
Assay type: functional

Activity: 40%
Structure (SMILES): O=C(O)CCCCCCC/C=C/CCCCCCCCOc1cc(C2(C(F)(F)F)N=N2)ccc1I
